Measured values reported in patent US20040058380A1 (priority 2002, published 2004).
Read-outs that look alike come from different tables or passages of the source.

What was measured:
[1] = not given; remark: listed apart in the source
[2] = not given; remark: listed apart in the source
[3] = not given; remark: listed apart in the source

NC(Cc1c[nH]c2ccccc12)C(=O)O (racemic) [DL-tryptophan]
potentiometric selectivity coefficient of DPA sensor (j: interference): 2.22 × 10^−3

Cc1cc2nc3c(=O)[nH]c(=O)nc-3n(C[C@H](O)[C@H](O)[C@H](O)CO)c2cc1C [riboflavin]
potentiometric selectivity coefficient of DPA sensor (j: interference): 7.78

NaCl
potentiometric selectivity coefficient of DPA sensor (j: interference): 20

KCl
potentiometric selectivity coefficient of DPA sensor (j: interference): 44.4

CaCO3
potentiometric selectivity coefficient of DPA sensor (j: interference): 2.22

K2HPO4
potentiometric selectivity coefficient of DPA sensor (j: interference): 4.44

O=C(O)C[C@@H](NC(=O)OCc1ccccc1)C(=O)O [N-CBZ-D-Asp]
potentiometric selectivity coefficient for L-isomer in the presence of D-isomer [1]: 9×10^−3
potentiometric selectivity coefficient for N-CBZ-L-Asp with respect to N-CBZ-D-Asp ([1]; pH 6.8): 0.08
D-Asp sensor output ([2]; 0.20 mM): 47 Mv
D-Asp sensor output ([2]; 0.33 mM): 55 Mv
D-Asp sensor output ([2]; 0.50 mM): 62 Mv
D-Asp sensor output ([2]; 0.64 mM): 68 Mv
D-Asp sensor output ([2]; 0.79 mM): 71 Mv
D-Asp sensor output ([2]; 0.93 mM): 76 Mv
D-Asp sensor output ([2]; 1.49 mM): 100 Mv
D-Asp sensor output ([2]; 2.79 mM): 158 Mv
D-Asp sensor output ([2]; 4.09 mM): 192 Mv
D-Asp sensor output ([2]; 5.32 mM): 203 Mv

N[C@@H](Cc1ccc(O)cc1)C(=O)O [L-tyrosine]
potentiometric selectivity coefficient of DPA sensor (j: interference): 2.22 × 10^−3

COC(=O)C=C(C)OP(=O)(OC)OC [phosdrin]
potentiometric selectivity coefficient of MPA sensor to interferences [3]: 3.33 × 10^−4

O=C(O)c1cccc(C(=O)O)n1 [DPA, pyridine-2,6-dicarboxylic acid]
DPA adsorbed in the sensor concentrated versus control (pH 7.2): 23 times

O=C(O)C[C@H](NC(=O)OCc1ccccc1)C(=O)O [N-CBZ-L-Asp]
L-Asp sensor output ([1]; 0.095 mM): 37 mV
L-Asp sensor output ([1]; 0.20 mM): 49 mV
L-Asp sensor output ([1]; 0.33 mM): 59 mV
L-Asp sensor output ([1]; 0.50 mM): 65 mV
L-Asp sensor output ([1]; 0.64 mM): 72 mV
L-Asp sensor output ([1]; 0.79 mM): 78 mV
L-Asp sensor output ([1]; 0.93 mM): 84 mV
L-Asp sensor output ([1]; 1.49 mM): 114 mV
L-Asp sensor output ([1]; 2.79 mM): 172 mV
L-Asp sensor output ([1]; 4.09 mM): 205 mV
L-Asp sensor output ([1]; 5.32 mM): 222 mV
potentiometric selectivity coefficient for D-isomer in the presence of L-isomer [2]: 4×10^−3

O=C(O)C[C@@H](O)C(=O)O [D(+)-malic acid]
potentiometric selectivity coefficient of DPA sensor (j: interference): 35.56

O=P(O)(O)O [H3PO4]
potentiometric selectivity coefficient of MPA sensor to interferences [3]: 7.5×10^−3
